Reference: publication PMC10693532, “The cardiac glycoside ZINC253504760 induces parthanatos-type cell death and G2/M arrest via downregulation of MEK1/2 phosphorylation in leukemia cells” (Cell Biology and Toxicology, 2023)
pKd: −log10 of the molar value.

Experiments:
[1] = molecular target: T1, MEK1 (Homo sapiens, UniProt Q02750); assay: microscale thermophoresis, labelled recombinant human MEK1; format: binding
T1 construct: gene MAP2K1

[2] = molecular target: T2, MEK2 (Homo sapiens, UniProt P36507); assay: microscale thermophoresis, labelled recombinant MEK2; format: binding
T2 construct: gene MAP2K2
T2 sequence (P36507 whole entry): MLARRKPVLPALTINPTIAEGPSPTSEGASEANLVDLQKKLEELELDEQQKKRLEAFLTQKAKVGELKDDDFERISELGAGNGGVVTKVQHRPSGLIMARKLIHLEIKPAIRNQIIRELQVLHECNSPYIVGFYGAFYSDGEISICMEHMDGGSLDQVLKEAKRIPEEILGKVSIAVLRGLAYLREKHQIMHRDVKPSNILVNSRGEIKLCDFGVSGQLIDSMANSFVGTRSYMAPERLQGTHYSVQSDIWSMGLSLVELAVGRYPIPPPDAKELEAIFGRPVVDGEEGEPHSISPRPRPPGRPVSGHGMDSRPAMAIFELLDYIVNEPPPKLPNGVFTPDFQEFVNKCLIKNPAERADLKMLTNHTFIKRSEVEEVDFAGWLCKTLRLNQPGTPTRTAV

T1 sequence (Q02750 whole entry): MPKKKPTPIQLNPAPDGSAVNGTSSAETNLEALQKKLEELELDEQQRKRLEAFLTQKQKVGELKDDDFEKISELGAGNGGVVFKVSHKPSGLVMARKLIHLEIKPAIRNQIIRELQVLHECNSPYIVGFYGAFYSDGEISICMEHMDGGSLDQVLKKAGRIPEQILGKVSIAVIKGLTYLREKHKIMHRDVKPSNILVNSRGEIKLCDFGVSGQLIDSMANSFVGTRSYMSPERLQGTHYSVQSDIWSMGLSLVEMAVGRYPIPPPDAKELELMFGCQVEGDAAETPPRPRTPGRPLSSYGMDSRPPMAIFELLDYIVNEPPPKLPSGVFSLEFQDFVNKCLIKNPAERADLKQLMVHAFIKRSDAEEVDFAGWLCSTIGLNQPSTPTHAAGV

C[C@H]1O[C@@H](O[C@@H]2[C@H](O)C[C@@H](O[C@@H]3[C@H](O)C[C@@H](O[C@H]4CC[C@@]5(C)[C@@H](CC[C@H]6[C@H]5C[C@@H](O)[C@]5(C)[C@H](C7=CC(=O)OC7)CC[C@]65O)C4)O[C@@H]3C)O[C@@H]2C)C[C@H](O)[C@@H]1O [ZINC253504760, 3-[(3S,5S,8S,9R,10S,12R,13S,14S,17S)-3-[(2S,4R,5R,6R)-5-[(2R,4R,5R,6R)-5-[(2S,4S,5S,6R)-4,5-dihydroxy-6-methyloxan-2-yl]oxy-4-hydroxy-6-methyloxan-2-yl]oxy-4-hydroxy-6-methyloxan-2-yl]oxy-12,14-dihydroxy-10,13-dimethyl-1,2,3,4,5,6,7,8,9,11,12,15,16,17-tetradecahydrocyclopenta[a]henanthrene-17-yl]-2H-furan-5-one] was tested, and the pKd [1] was 6.30 and the pKd [2] was 5.66.
